Results on 1 compound are retold here after US8350118B2, “Allergic disease model animals” (Keio University, priority 2008, dated 2013).

The test system of the data set is Langerhans cells. Description: corneum-barrier transmission: uptake into Langerhans cells after application to ear skin surface. Particulars: 7 weeks of age, 10 mg/mL applied to skin surface inside the ear, ears collected after 24 hours. The format is in vivo, mouse. The source says: To confirm that the skin-barrier function is impaired in FLG-gene deficient mice, a method was developed for evaluating skin-barrier function based on the amount of uptake of antigen into Langerhans cells that are antigen-presenting cells in epidermis, to examine the skin-barrier function in FLG^−/− mice and wild-type mice. In a conventional method for evaluating antigen uptake into Langerhans cells by externally applying antigen to the skin, reagents such as FITC that easily pass through the corneum barrier has been used. However, a change in the corneum-barrier transmission due to loss of filaggrin cannot be observed by the methods using reagents that easily pass through the corneum barrier. Thus the present inventors established for the first time a method for evaluating corneum-barrier transmission using sulfo-NHS-LC-biotin which is a cell-membrane impermeable, protein-biotinylating reagent. This method has enabled the observation of a change in corneum-barrier transmission. The structural formula of sulfo-NHS-LC-biotin is shown below. Sulfo-NHS-LC-biotin (#21335; Thermo Scientific) was applied to a FLG^−/− mouse and a wild-type littermate mouse at 7 weeks of age on the skin surface inside the ear, and the uptake into Langerhans cells was observed under a fluorescence microscope. […]

Each structure is given as a SMILES string.

In the case of `O=C(CCCCC1SCC2NC(=O)NC21)NCCCCCC(=O)ON1C(=O)CC(S(=O)(=O)[O-])C1=O.[Na+]` (centres unmarked) [biotin, sulfo-NHS-LC-biotin], the “biotin uptake into Langerhans cells” value is, setting by setting: (FLG−/− mouse) “biotin (green) taken up was accumulated in Langerhans cell body (red)”; (wild-type littermate mouse) “no biotin (green) uptake into Langerhans cells (red) was observed”.
